Assays:
Test in all cases: KINOMEscan kinase binding assay (Eurofins/DiscoveRx), % Ctrl
Conditions in all cases: 1 μM
kinases [1] = biological target: T1, kinases (Homo sapiens, UniProt P00519, Q252H)
T1 construct: purchased Eurofins/DiscoveRx; host or cells: E. coli BL21-derived host (T7 phage display) for most kinases; HEK-293 for the rest
How it was run: (§1)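 Read-out is qPCR of kinase eluted from ligand-coated streptavidin beads after 1 h room-temperature competition with test compound. Values are % Ctrl at the tested concentration, lower meaning tighter binding.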

kinases [2] = biological target: T2, kinases (Homo sapiens, UniProt P00533, G719S)
T2 construct: purchased Eurofins/DiscoveRx; host or cells: E. coli BL21-derived host (T7 phage display) for most kinases; HEK-293 for the rest
How it was run: as §1

kinases [3] = biological target: T3, kinases (Homo sapiens, UniProt P00533, L858R)
T3 construct: purchased Eurofins/DiscoveRx; host or cells: E. coli BL21-derived host (T7 phage display) for most kinases; HEK-293 for the rest
How it was run: as §1

kinases [4] = biological target: T4, kinases (Homo sapiens, UniProt P00533, DEL746-750)
T4 construct: purchased Eurofins/DiscoveRx; host or cells: E. coli BL21-derived host (T7 phage display) for most kinases; HEK-293 for the rest
How it was run: as §1

kinases [5] = biological target: T5, kinases (Homo sapiens, UniProt P17948)
T5 construct: purchased Eurofins/DiscoveRx; host or cells: E. coli BL21-derived host (T7 phage display) for most kinases; HEK-293 for the rest
How it was run: as §1

kinases [6] = biological target: T6, kinases (Homo sapiens, UniProt P35916)
T6 construct: purchased Eurofins/DiscoveRx; host or cells: E. coli BL21-derived host (T7 phage display) for most kinases; HEK-293 for the rest
How it was run: as §1

kinases [7] = system: kinases
How it was run: as §1

T5 sequence (P17948 27-1338): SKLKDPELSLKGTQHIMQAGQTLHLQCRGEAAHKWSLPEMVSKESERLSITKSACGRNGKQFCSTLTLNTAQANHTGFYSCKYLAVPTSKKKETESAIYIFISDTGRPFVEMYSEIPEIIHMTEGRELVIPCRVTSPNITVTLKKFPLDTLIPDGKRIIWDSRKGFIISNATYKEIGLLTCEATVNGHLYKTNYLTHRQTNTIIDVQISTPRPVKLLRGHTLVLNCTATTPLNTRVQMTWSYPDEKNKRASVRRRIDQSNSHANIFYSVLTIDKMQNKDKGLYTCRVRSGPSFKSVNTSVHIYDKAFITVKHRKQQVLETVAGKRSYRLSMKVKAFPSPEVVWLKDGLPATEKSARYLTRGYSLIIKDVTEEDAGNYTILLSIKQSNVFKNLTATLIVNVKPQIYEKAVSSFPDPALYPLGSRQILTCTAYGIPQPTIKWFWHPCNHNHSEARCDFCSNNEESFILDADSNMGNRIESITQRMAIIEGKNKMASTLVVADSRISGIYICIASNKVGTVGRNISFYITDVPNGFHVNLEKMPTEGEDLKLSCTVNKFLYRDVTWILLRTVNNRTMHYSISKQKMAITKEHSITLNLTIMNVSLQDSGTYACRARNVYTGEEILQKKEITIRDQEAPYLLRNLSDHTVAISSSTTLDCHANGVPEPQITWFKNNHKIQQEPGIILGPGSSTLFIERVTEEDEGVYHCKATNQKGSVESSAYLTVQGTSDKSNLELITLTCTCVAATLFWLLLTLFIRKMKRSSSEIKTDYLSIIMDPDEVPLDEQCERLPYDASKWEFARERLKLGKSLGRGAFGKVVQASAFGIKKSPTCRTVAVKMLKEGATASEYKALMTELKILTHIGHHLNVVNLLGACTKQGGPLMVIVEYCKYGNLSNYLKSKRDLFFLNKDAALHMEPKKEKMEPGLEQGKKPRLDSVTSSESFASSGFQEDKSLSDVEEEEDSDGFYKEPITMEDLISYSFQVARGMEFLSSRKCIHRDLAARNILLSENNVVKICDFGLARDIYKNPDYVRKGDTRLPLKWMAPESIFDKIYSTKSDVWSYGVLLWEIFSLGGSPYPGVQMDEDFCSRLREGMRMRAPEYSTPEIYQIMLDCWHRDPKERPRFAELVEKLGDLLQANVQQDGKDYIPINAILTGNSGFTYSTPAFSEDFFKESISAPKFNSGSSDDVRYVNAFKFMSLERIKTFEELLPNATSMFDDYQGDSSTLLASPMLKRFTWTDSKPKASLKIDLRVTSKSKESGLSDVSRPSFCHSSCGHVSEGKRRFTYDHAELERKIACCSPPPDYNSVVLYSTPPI
T6 sequence (P35916 25-1363): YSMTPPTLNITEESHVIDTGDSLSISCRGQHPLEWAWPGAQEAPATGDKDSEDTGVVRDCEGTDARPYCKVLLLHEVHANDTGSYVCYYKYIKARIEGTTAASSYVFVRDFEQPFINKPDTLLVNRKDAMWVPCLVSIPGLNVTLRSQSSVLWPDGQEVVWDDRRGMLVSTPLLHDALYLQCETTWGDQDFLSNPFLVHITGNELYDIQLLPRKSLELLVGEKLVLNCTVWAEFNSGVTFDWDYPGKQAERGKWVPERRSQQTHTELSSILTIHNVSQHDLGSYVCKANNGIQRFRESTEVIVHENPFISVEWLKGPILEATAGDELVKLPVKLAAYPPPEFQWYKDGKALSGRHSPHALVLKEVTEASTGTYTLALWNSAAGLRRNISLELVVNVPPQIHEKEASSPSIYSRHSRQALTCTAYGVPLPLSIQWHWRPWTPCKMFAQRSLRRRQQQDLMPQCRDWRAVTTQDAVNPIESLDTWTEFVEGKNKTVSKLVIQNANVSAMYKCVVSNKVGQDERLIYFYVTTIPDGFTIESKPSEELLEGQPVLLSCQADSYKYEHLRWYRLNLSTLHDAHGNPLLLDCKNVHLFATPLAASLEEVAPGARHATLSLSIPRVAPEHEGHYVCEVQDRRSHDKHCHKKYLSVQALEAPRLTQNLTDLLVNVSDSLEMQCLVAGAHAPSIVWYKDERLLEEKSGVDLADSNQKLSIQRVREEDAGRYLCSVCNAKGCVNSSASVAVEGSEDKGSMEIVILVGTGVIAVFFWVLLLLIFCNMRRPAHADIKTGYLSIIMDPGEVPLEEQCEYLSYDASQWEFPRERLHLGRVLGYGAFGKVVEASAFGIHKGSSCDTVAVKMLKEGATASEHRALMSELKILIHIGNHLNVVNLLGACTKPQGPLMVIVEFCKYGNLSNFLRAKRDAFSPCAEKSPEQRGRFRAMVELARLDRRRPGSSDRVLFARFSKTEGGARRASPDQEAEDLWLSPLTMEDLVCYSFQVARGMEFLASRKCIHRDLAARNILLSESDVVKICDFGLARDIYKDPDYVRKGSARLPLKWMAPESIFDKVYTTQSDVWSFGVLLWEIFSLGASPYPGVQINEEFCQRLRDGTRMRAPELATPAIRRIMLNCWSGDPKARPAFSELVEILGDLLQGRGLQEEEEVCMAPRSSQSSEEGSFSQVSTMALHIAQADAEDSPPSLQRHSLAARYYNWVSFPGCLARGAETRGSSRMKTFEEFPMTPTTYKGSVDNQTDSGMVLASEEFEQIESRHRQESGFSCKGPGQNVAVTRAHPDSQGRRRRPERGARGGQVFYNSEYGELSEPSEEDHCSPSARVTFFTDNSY

| SMILES | % Ctrl, ABL1(Q252H)-nonphosphorylated (kinases [1]; ABL1(Q252H)-nonphosphorylated) [% Ctrl] | % Ctrl, ABL1(Q252H)-phosphorylated (kinases [1]; ABL1(Q252H)-phosphorylated) [% Ctrl] | % Ctrl, EGFR(G719S) (kinases [2]; EGFR(G719S)) [% Ctrl] | % Ctrl, EGFR(L858R) (kinases [3]; EGFR(L858R)) [% Ctrl] | % Ctrl, EGFR(E746-A750del) (kinases [4]; EGFR(E746-A750del)) [% Ctrl] | % Ctrl, FLT1 (kinases [5]; FLT1) [% Ctrl] | % Ctrl, FLT4 (kinases [6]; FLT4) [% Ctrl] | % Ctrl, EGFR(L747-E749del, A750P) (kinases [7]; EGFR(L747-E749del, A750P)) [% Ctrl] | % Ctrl, EGFR(L747-S752del, P753S) (kinases [7]; EGFR(L747-S752del, P753S)) [% Ctrl] | % Ctrl, EGFR(L747-T751del, Sins) (kinases [7]; EGFR(L747-T751del, Sins)) [% Ctrl] | % Ctrl, FLT3(ITD) (kinases [7]; FLT3(ITD)) [% Ctrl] | % Ctrl, FLT3(ITD, D835V) (kinases [7]; FLT3(ITD, D835V)) [% Ctrl] | % Ctrl, FLT3(ITD, F691L) (kinases [7]; FLT3(ITD, F691L)) [% Ctrl] | also measured |
| --- | --- | --- | --- | --- | --- | --- | --- | --- | --- | --- | --- | --- | --- | --- |
| Cc1cc2c([nH]1)/C=C1\C(=O)Nc3cc(Cl)c(cc31)SCCOCCN(C)C2=O [Ex. 169, [16a(17)Z]-19-chloro-5-methyl-6,7,9,10-tetrahydro-1H-12,14-(ethanediylidene)dipyrrolo[3,4-g:2′,3′-j][1,4,13]oxathiazacyclopentadecine-4,16(5H,15H)-dione] |  |  |  |  |  |  |  |  |  |  |  |  |  | % Ctrl, ABL1(Q252H)-nonphosphorylated (kinases [1]; target ABL1(Q252H)-nonphosphorylated): 0 % Ctrl; % Ctrl, ABL1(Q252H)-phosphorylated (kinases [1]; target ABL1(Q252H)-phosphorylated): 0.3 % Ctrl; % Ctrl, EGFR(G719S) (kinases [2]; target EGFR(G719S)): 88 % Ctrl; % Ctrl, EGFR(L858R) (kinases [3]; target EGFR(L858R)): 52 % Ctrl; % Ctrl, EGFR(E746-A750del) (kinases [4]; target EGFR(E746-A750del)): 9.9 % Ctrl; % Ctrl, FLT1 (kinases [5]; target FLT1): 12 % Ctrl; % Ctrl, FLT4 (kinases [6]; target FLT4): 0.1 % Ctrl; % Ctrl, EGFR(L747-E749del, A750P) (kinases [7]; target EGFR(L747-E749del, A750P)): 44 % Ctrl; % Ctrl, EGFR(L747-S752del, P753S) (kinases [7]; target EGFR(L747-S752del, P753S)): 56 % Ctrl; % Ctrl, EGFR(L747-T751del, Sins) (kinases [7]; target EGFR(L747-T751del, Sins)): 30 % Ctrl; % Ctrl, FLT3(ITD) (kinases [7]; target FLT3(ITD)): 0.9 % Ctrl; % Ctrl, FLT3(ITD, D835V) (kinases [7]; target FLT3(ITD, D835V)): 0.4 % Ctrl; % Ctrl, FLT3(ITD, F691L) (kinases [7]; target FLT3(ITD, F691L)): 0.1 % Ctrl |
| Cc1cc2c([nH]1)/C=C1\C(=O)Nc3ccc(cc31)-c1c(C)n[nH]c1CNCCN(C)C2=O [Ex. 127, [3a(4)Z]-6,9,16-trimethyl-9,10,11,12,13,14-hexahydro-1,17-(ethanediylidene)pyrazolo[4,3-m]dipyrrolo[3,2-f:3′,4′-i][1,4]diazacyclopentadecine-3,8(2H,5H)-dione] | 0 | 0.05 | 72 | 47 | 13 | 54 | 2.1 | 26 | 40 | 43 | 2.2 | 0 | 6.2 |  |
| Cc1cc2c([nH]1)/C=C1\C(=O)Nc3cc(Cl)c(cc31)OCCO[C@@H](C(=O)N(C)C)CN(C)C2=O [Ex. 137, [7R,16a(17)Z]-19-chloro-N,N,2,5-tetramethyl-4,16-dioxo-4,5,6,7,9,10,15,16-octahydro-1H-12,14-(ethanediylidene)dipyrrolo[3,2-i:3′,4′-l][1,4,7]dioxazacyclopentadecine-7-carboxamide] | 48 | 51 | 98 | 99 | 98 | 88 | 95 | 100 | 100 | 100 | 44 | 9.1 | 29 |  |
| Cc1cc2c([nH]1)/C=C1\C(=O)Nc3ccc(cc31)-c1ccnn1CCOCCN(C)C2=O [Ex. 41, [19a(20)Z]-2,5-dimethyl-6,7,9,10-tetrahydro-1H-15,17-(ethanediylidene)pyrazolo[1,5-d]dipyrrolo[3,4-h:2′,3′-k][1,4,14]oxadiazacyclohexadecine-4,19(5H,18H)-dione] | 9 | 63 | 86 | 93 | 36 | 81 | 62 | 87 | 78 | 77 | 13 | 0.8 | 0.35 |  |
| Cc1cc2c([nH]1)/C=C1\C(=O)Nc3cnc(cc31)-c1cnn(C)c1COCCNC2=O [Ex.123, [3a(4)Z]-6,14-dimethyl-10,11,13,14-tetrahydro-2H-17,1-(azenometheno)pyrazolo[4,3-m]dipyrrolo[3,2-f:3′,4′-i][1,4]oxazacyclopentadecine-3,8(5H,9H)-dione] | 92 | 100 | 94 | 94 | 100 | 96 | 94 | 9 | 100 | 74 | 93 | 100 | 39 |  |
| Cc1cc2c([nH]1)/C=C1\C(=O)Nc3ccc(cc31)O[C@@H](C)COCCN(C)C2=O [Ex. 92, [10S,16a(17)Z]-2,5,10-trimethyl-6,7,9,10-tetrahydro-1H-12,14-(ethanediylidene)dipyrrolo[3,2-i:3′,4′-l][1,4,7]dioxazacyclopentadecine-4,16(5H,15H)-dione] | 0 | 34 | 98 | 98 | 100 | 90 | 75 | 91 | 55 | 98 | 45 | 8.3 | 9.2 |  |
| Cc1cc2c([nH]1)/C=C1\C(=O)Nc3ccc(cc31)-c1cnn(C)c1CN(C)CCN(C)C2=O [Ex. 126, [3a(4)Z]-6,9,12,14-tetramethyl-9,10,11,12,13,14-hexahydro-1,17-(ethanediylidene)pyrazolo[4,3-m]dipyrrolo[3,2-f:3′,4′-i][1,4]diazacyclopentadecine-3,8(2H,5H)-dione] | 1.7 | 0.75 | 57 | 31 | 3.9 | 0.65 | 0 | 1.8 | 14 | 27 | 0.4 | 0 | 2.5 |  |

Source: patent US20230257396A1, “MACROCYCLES AND THEIR USE” (BLOSSOMHILL THERAPEUTICS, INC., priority 2020, published 2023)
